Measurements as given in patent publication US12655124B2, “Heterocyclic compounds as modulators of stimulator of interferon genes (STING)” (RYVU THERAPEUTICS S.A., priority 2019, dated 2026).

Each molecule was assayed on NF-κB pathway in THP-1 dual cells (assay: THP-1 Dual reporter assay, NF-κB pathway (SEAP)). Conditions: Homo sapiens, THP1-Dual, 18 h stimulation, absorbance at 630 or 655 nm, read-out: THP1 Dual EC50 (μM) NFkB.
Format: cell-based
Description: (§1) THP-1 Dual Reporter Assay
(§2) Compounds of the present invention were tested for their activity using THP-1 dual cells (Invivogen, cat no. thpd-nfis) allowing for simultaneous study of NF-κB pathway and the interferon regulatory factor (IRF) pathway. THP-1 dual cells contain luciferase reporter gene under the control of an ISG54 (interferon-stimulated gene) minimal promoter in conjunction with five interferon-stimulated response elements and a secreted embryonic alkaline phosphatase reporter gene under the control an IFN (interferon)-β minimal promoter fused to five copies of the NF-κB consensus transcriptional response element with three copies of the c-Rel binding site. Following 18 h of stimulation with STING agonist, medium was collected and transferred onto fresh cell culture plate. To verify activity of the IRF pathway, luminescence activity was measured with standard laboratory plate reader immediately after addition 10 μl of the medium to 40 or 50 μl of luminescence reagent (Invivogen, cat. No. rep-qlc2). To verify activity of NF-κB pathway, 10 or 20 μl of the medium was mixed with 80 μl of a detection medium (Invivogen, cat. No. rep-qb2) and incubated for 1 or 2 hours at 37° C. in a humidified atmosphere containing 5% CO2. Next, absorbance at 630 or 655 nm was recorded using standard laboratory plate reader.
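For hSTING FTS binding assay (ΔT ° C.) in this document: STING preincubated with compound for 20 min in HEPES NaCl buffer pH 7.5.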

| Structure (SMILES) | EC50 [µM] |
| --- | --- |
| Cc1ccc(N2CCC[C@H](N(Cc3ccnc(C)c3)Cc3cn(C)c4cc(N5CC[C@H](N)C(F)(F)C5)ccc4c3=O)C2)cn1 (single isomer, unassigned) [Example 51] | 1 to 10 |

The molecules below were run on interferon regulatory factor (IRF) pathway in THP-1 dual cells (assay: THP-1 Dual reporter assay, IRF pathway (luciferase)). Conditions: Homo sapiens, THP1-Dual, 18 h stimulation, luminescence.
Format: cell-based
Description: as §1, §2

| Structure (SMILES) | EC50 [µM] |
| --- | --- |
| Cc1ccc(N2CCC[C@H](N(Cc3ccnc(C)c3)Cc3cn(C)c4cc(N5CC[C@H](N)C(F)(F)C5)ccc4c3=O)C2)cn1 (single isomer, unassigned) [Example 51] | ≤ 1 |

What follows are molecules tested against human STING (Homo sapiens, UniProt Q86WV6) (assay: Fluorescence Thermal Shift assay (hSTING FTS binding assay)). Conditions: ΔTm, STING 0.1 mg/mL, SyproOrange, 25 to 99° C.
Description: Fluorescence Thermal Shift Assay Compounds of the present invention were tested for binding to human STING in Fluorescence Thermal Shift assay. […] Final STING concentration was 0.1 mg/mL. Thermal unfolding was performed in Real-Time PCR QuantStudio 6 Flex System (Applied Biosystems), from 25 to 99° C., with continuous ramp mode and ramp rate 0.033° C./s. The data were analyzed using Protein Thermal Shift Software (ThermoFisher).

Chain of human STING (Q86WV6 whole entry H232R): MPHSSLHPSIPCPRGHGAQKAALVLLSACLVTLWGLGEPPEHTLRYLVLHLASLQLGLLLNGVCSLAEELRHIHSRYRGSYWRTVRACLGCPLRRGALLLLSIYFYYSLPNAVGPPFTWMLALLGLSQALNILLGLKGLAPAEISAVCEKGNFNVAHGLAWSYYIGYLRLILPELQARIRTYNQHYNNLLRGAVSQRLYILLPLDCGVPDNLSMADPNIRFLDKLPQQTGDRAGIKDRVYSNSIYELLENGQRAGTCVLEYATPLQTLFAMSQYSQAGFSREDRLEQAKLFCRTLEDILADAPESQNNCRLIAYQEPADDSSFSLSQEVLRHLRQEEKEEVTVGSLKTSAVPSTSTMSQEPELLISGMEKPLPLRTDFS

| Structure (SMILES) | hSTING FTS binding assay (ΔT ° C.) |
| --- | --- |
| Cc1ccc(N2CCC[C@H](N(Cc3ccnc(C)c3)Cc3cn(C4CC4)c4cc(N5CCC[C@@H](O)C5)c(F)cc4c3=O)C2)cn1.Cl [Example 28, 1-cyclopropyl-6-fluoro-7-[(3R)-3-hydroxypiperidin-1-yl]-3-({[(3S)-1-(6-methylpyridin-3-yl)piperidin-3-yl][(2-methylpyridin-4-yl)methyl]amino}methyl)-1,4-dihydroquinolin-4-one Hydrochloride] | +++ (ΔTm≥20° C.) |
| Cc1cc(CN(Cc2cn(C)c3cc(Br)ccc3c2=O)[C@H]2CCCN(c3ccc(N)nc3)C2)ccn1.Cl [Example 29, 3-({[(3S)-1-(6-aminopyridin-3-yl)piperidin-3-yl][(2-methylpyridin-4-yl)methyl]amino}methyl)-7-bromo-1-methyl-1,4-dihydroquinolin-4-one Hydrochloride] | +++ (ΔTm≥20° C.) |
| Cc1ccc(N2CCC[C@H](N(Cc3ccnc(C)c3)Cc3cn(C4CC4)c4cc(N5CCC(F)(CN)C5)c(F)cc4c3=O)C2)cn1 (stereo partly drawn) [Example 30, 7-[3-(aminomethyl)-3-fluoropyrrolidin-1-yl]-1-cyclopropyl-6-fluoro-3-({[(3S)-1-(6-methylpyridin-3-yl)piperidin-3-yl][(2-methylpyridin-4-yl)methyl]amino}methyl)-1,4-dihydroquinolin-4-one] | +++ (ΔTm≥20° C.) |
| Cc1ccc(N2CCC[C@H](N(Cc3ccnc(C)c3)Cc3cn(C4CC4)c4cc(N5CCC(O)CC5)c(F)cc4c3=O)C2)cn1.Cl [Example 32, 1-cyclopropyl-6-fluoro-7-(4-hydroxypiperidin-1-yl)-3-({[(3S)-1-(6-methylpyridin-3-yl)piperidin-3-yl][(2-methylpyridin-4-yl)methyl]amino}methyl)-1,4-dihydroquinolin-4-one Hydrochloride] | +++ (ΔTm≥20° C.) |
| CNC1CCN(c2cc3c(cc2F)c(=O)c(CN(Cc2ccnc(C)c2)[C@H]2CCCN(c4ccc(C)nc4)C2)cn3C2CC2)C1 (stereo partly drawn) [Example 33, 1-cyclopropyl-6-fluoro-7-[3-(methylamino)pyrrolidin-1-yl]-3-({[(3S)-1-(6-methylpyridin-3-yl)piperidin-3-yl][(2-methylpyridin-4-yl)methyl]amino}methyl)-1,4-dihydroquinolin-4-one] | +++ (ΔTm≥20° C.) |
| Cc1cc(CN(Cc2cn(C(C)C)c3ccccc3c2=O)[C@H]2CCCN(c3ccc(N)nc3)C2)ccn1.Cl [Example 34, 3-({[(3S)-1-(6-aminopyridin-3-yl)piperidin-3-yl][(2-methylpyridin-4-yl)methyl]amino}methyl)-1-(propan-2-yl)-1,4-dihydroquinolin-4-one Hydrochloride] | +++ (ΔTm≥20° C.) |
| Cc1cc(CN(Cc2cn(C3COC3)c3ccccc3c2=O)[C@H]2CCCN(c3ccc(N)nc3)C2)ccn1 [Example 35, 3-({[(3S)-1-(6-aminopyridin-3-yl)piperidin-3-yl][(2-methylpyridin-4-yl)methyl]amino}methyl)-1-(oxetan-3-yl)-1,4-dihydroquinolin-4-one] | +++ (ΔTm≥20° C.) |
| Cc1ccc(N2CCC[C@H](N(Cc3ccnc(C)c3)Cc3cn(C4CC4)c4nc(N5CC[C@@H](O)C5)c(F)cc4c3=O)C2)cn1.Cl [Example 37, 1-cyclopropyl-6-fluoro-7-[(3R)-3-hydroxypyrrolidin-1-yl]-3-({[(3S)-1-(6-methylpyridin-3-yl)piperidin-3-yl][(2-methylpyridin-4-yl)methyl]amino}methyl)-1,4-dihydro-1,8-naphthyridin-4-one Hydrochloride] | +++ (ΔTm≥20° C.) |
| Cc1cc(CN(Cc2cn(C(C)C)c3cc(N4CC[C@@H](O)C4)ccc3c2=O)[C@H]2CCCN(c3ccnnc3)C2)ccn1 [Example 49, 7-[(3R)-3-hydroxypyrrolidin-1-yl]-3-({[(2-methylpyridin-4-yl)methyl][(3S)-1-(pyridazin-4-yl)piperidin-3-yl]amino}methyl)-1-(propan-2-yl)-1,4-dihydroquinolin-4-one] | + (ΔTm≤10° C.) |
| CN[C@@H]1CCN(c2cc3c(cc2F)c(=O)c(CN(Cc2ccnc(C)c2)[C@H]2CCCN(c4ccc(C)nc4)C2)cn3C2CC2)C1.Cl [Example 55, 1-Cyclopropyl-6-fluoro-7-[(3R)-3-(methylamino)pyrrolidin-1-yl]-3-({[(3S)-1-(6-methylpyridin-3-yl)piperidin-3-yl][(2-methylpyridin-4-yl)methyl]amino}methyl)-1,4-dihydroquinolin-4-one Hydrochloride] | +++ (ΔTm≥20° C.) |
| CN[C@H]1CCN(c2cc3c(cc2F)c(=O)c(CN(Cc2ccnc(C)c2)[C@H]2CCCN(c4ccc(C)nc4)C2)cn3C2CC2)C1.Cl [Example 58, 1-Cyclopropyl-6-fluoro-7-[(3S)-3-(methylamino)pyrrolidin-1-yl]-3-({[(3S)-1-(6-methylpyridin-3-yl)piperidin-3-yl][(2-methylpyridin-4-yl)methyl]amino}methyl)-1,4-dihydroquinolin-4-one Hydrochloride] | +++ (ΔTm≥20° C.) |
| Cc1ccc(N2CCC[C@H](N(Cc3ccnc(C)c3)Cc3cn(C4CC4)c4cc(N5CCCC(C(=O)O)C5)c(F)cc4c3=O)C2)cn1 (stereo partly drawn) [Example 66, 1-[1-cyclopropyl-6-fluoro-3-({[(3S)-1-(6-methylpyridin-3-yl)piperidin-3-yl][(2-methylpyridin-4-yl)methyl]amino}methyl)-4-oxo-1,4-dihydroquinolin-7-yl]piperidine-3-carboxylic Acid] | +++ (ΔTm≥20° C.) |
| Cc1ccc(N2CCC[C@H](N(Cc3ccnc(C)c3)Cc3cn(C4CC4)c4cc(N5CCC(C(=O)O)CC5)c(F)cc4c3=O)C2)cn1 [Example 67, 1-[1-cyclopropyl-6-fluoro-3-({[(3S)-1-(6-methylpyridin-3-yl)piperidin-3-yl][(2-methylpyridin-4-yl)methyl]amino}methyl)-4-oxo-1,4-dihydroquinolin-7-yl]piperidine-4-carboxylic Acid] | +++ (ΔTm≥20° C.) |
| Cc1ccc(N2CCC[C@H](N(Cc3ccnc(C)c3)Cc3cn(C4CC4)c4cc(N5CCC6NCCC6C5)c(F)cc4c3=O)C2)cn1 (stereo partly drawn) [Example 68, 1-cyclopropyl-6-fluoro-3-({[(3S)-1-(6-methylpyridin-3-yl)piperidin-3-yl][(2-methylpyridin-4-yl)methyl]amino}methyl)-7-{octahydro-1H-pyrrolo[3,2-c]pyridin-5-yl}-1,4-dihydroquinolin-4-one] | +++ (ΔTm≥20° C.) |
| Cc1ccc(N2C[C@@H](F)C[C@H](N(Cc3ccnc(C)c3)Cc3cn(C4CC4)c4cc(OCCO)c(F)cc4c3=O)C2)cn1 [Example 75, 1-cyclopropyl-6-fluoro-3-({[(3S,5S)-5-fluoro-1-(6-methylpyridin-3-yl)piperidin-3-yl][(2-methylpyridin-4-yl)methyl]amino}methyl)-7-(2-hydroxyethoxy)-1,4-dihydroquinolin-4-one] | +++ (ΔTm≥20° C.) |
| Cc1cc(CN(Cc2cn(C3CC3)c3cc(N4CC[C@@H](O)C4)c(F)cc3c2=O)[C@H]2CCCN(c3cccnc3)C2)ccn1 [Example 78, 1-cyclopropyl-6-fluoro-7-[(3R)-3-hydroxypyrrolidin-1-yl]-3-({[(2-methylpyridin-4-yl)methyl][(3S)-1-(pyridin-3-yl)piperidin-3-yl]amino}methyl)-1,4-dihydroquinolin-4-one] | +++ (ΔTm≥20° C.) |
| Cc1cnc(N2C[C@@H](F)C[C@H](N(Cc3ccnc(C)c3)Cc3cn(C4CC4)c4cc(N5CCC[C@H](O)C5)c(F)cc4c3=O)C2)cn1 [Example 82, 1-cyclopropyl-6-fluoro-3-({[(3S,5S)-5-fluoro-1-(5-methylpyrazin-2-yl)piperidin-3-yl][(2-methylpyridin-4-yl)methyl]amino}methyl)-7-[(3S)-3-hydroxypiperidin-1-yl]-1,4-dihydroquinolin-4-one] | ++ (10<ΔTm<20° C.) |
| Cc1cc(CN(Cc2cn(C3CC3)c3cc(N4CCC[C@H](O)C4)c(F)cc3c2=O)[C@H]2CCCN(c3cccnc3)C2)ccn1.Cl [Example 86, 1-cyclopropyl-6-fluoro-7-[(3S)-3-hydroxypiperidin-1-yl]-3-({[(2-methylpyridin-4-yl)methyl][(3S)-1-(pyridin-3-yl)piperidin-3-yl]amino}methyl)-1,4-dihydroquinolin-4-one Hydrochloride] | +++ (ΔTm≥20° C.) |
